Measured values reported in patent US9776972B2, “Pyrazole derivatives as arginine methyltransferase inhibitors and uses thereof” (priority 2013, dated 2017).

Target: human PRMT8 (Homo sapiens, UniProt Q9NR22)
Assay: PRMT8 Biochemical Assay (3H-SAM Flashplate, peptide substrate)
Settings: single experiment or average of multiple experiments
How it was run: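 E. coli-expressed human PRMT8 (GST removed) was preincubated with compound for 30 min at room temperature in 20 mM Bicine pH 7.6 with TCEP, BSG and Tween 20. 3H-SAM and a biotinylated H4 31-45 peptide were then added, and the reaction was stopped with cold SAM. Labelled peptide was captured on streptavidin Flashplates; % inhibition was calculated against DMSO and SAH controls and fitted to a 3- or 4-parameter curve.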

Sequence of human PRMT8 (Q9NR22 whole entry): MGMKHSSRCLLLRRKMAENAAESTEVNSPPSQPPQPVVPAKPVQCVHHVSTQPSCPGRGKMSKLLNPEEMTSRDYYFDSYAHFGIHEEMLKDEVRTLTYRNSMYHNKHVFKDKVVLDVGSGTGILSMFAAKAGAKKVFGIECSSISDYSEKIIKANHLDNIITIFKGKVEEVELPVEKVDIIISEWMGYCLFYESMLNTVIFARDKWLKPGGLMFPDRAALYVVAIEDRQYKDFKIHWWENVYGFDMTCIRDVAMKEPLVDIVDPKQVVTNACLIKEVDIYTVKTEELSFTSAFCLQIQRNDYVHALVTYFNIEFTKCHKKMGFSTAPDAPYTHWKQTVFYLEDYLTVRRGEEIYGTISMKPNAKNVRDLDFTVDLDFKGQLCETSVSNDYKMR

Compound | IC50
CNCCN(C)Cc1c[nH]nc1-c1ccc(F)cc1 [Compound 2, N^1-((3-(4-fluorophenyl)-1H-pyrazol-4-yl)methyl)-N^1,N^2-dimethylethane-1,2-diamine] | 507 nM
CCCc1ccc(-c2n[nH]cc2CN(C)CCNC)cc1 [Compound 20] | 57.7 nM
CNCCN(C)Cc1c[nH]nc1-c1cccc([N+](=O)[O-])c1 [Compound 21] | 520 nM
CNCCN(C)Cc1c[nH]nc1-c1cccc(C#N)c1 [Compound 22] | 2240 nM
CNCCN(C)Cc1c[nH]nc1-c1ccccc1OC [Compound 23] | 3290 nM
CNCCN(C)Cc1c[nH]nc1-c1cccc(OC)c1 [Compound 24] | 888 nM
CNCCN(C)Cc1c[nH]nc1-c1ccc(OC)cc1 [Compound 25] | 550 nM
CNCCN(C)Cc1c[nH]nc1-c1ccccc1C(F)(F)F [Compound 38] | 9900 nM
CNCCN(C)Cc1c[nH]nc1-c1ccc(C(=O)c2ccccc2)cc1 [Compound 45] | 308 nM
CNCCN(C)Cc1c[nH]nc1-c1ccccc1-c1ccccc1 [Compound 46] | 11900 nM
CNCCN(C)Cc1c[nH]nc1-c1ccc(OC)cc1OC [Compound 55] | 3190 nM
CNCCN(C)Cc1c[nH]nc1-c1c(OC)cccc1OC [Compound 56] | 34900 nM
CNCCN(C)Cc1cnn(CC(=O)OC)c1-c1ccc(OC(C)C)cc1 [Compound 249] | 1500 nM
CNCCN(C)Cc1cn(CC(=O)O)nc1-c1ccc(OC(C)C)cc1 [Compound 250] | 2540 nM

The next lines start with the values.

IC50 | Compound
1500 nM | CNCCN(C)Cc1c[nH]nc1-c1cccc(O)c1 [Compound 26]
712 nM | CNCCN(C)Cc1c[nH]nc1-c1ccc(O)cc1 [Compound 27]
95.5 nM | CNCCN(C)Cc1c[nH]nc1-c1ccc(CO)cc1 [Compound 28]
2310 nM | CNCCN(C)Cc1c[nH]nc1-c1ccc(C)cc1C [Compound 29]
> 50000 nM | CNCCN(C)Cc1cn(CCCC(O)CO)nc1-c1ccc(F)cc1 (stereo not drawn) [Compound 30]
6310 nM | CNCCN(C)Cc1cnn(CCCC(O)CO)c1-c1ccc(F)cc1 (stereo not drawn) [Compound 31]
1430 nM | CNCCN(C)Cc1c[nH]nc1-c1ccc(N)cc1 [Compound 33]
57.6 nM | CNCCN(C)Cc1c[nH]nc1-c1ccc(Oc2ccccc2)cc1 [Compound 37]
2260 nM | CCNC(=O)c1cccc(-c2n[nH]cc2CN(C)CCNC)c1 [Compound 43]
749 nM | CNCCN(C)Cc1c[nH]nc1-c1ccc(F)cc1F [Compound 49]
1660 nM | CNCCN(C)Cc1c[nH]nc1-c1cc(F)ccc1F [Compound 50]
184 nM | CNCCN(C)Cc1c[nH]nc1-c1ccc(F)c(F)c1 [Compound 51]
219 nM | CNCCN(C)Cc1c[nH]nc1-c1ccc(OC)c(F)c1 [Compound 52]
196 nM | CNCCN(C)Cc1c[nH]nc1-c1cccc2ccccc12 [Compound 57]
170 nM | CNCCN(C)Cc1c[nH]nc1-c1ccc2ccccc2c1 [Compound 58]
8860 nM | CNCCN(C)Cc1cn(CCC(O)CO)nc1-c1ccc(F)cc1 (stereo not drawn) [Compound 59]
362 nM | CCN(CCN)Cc1c[nH]nc1-c1ccc(F)cc1 [Compound 62]
8030 nM | CCCN(CCN)Cc1c[nH]nc1-c1ccc(F)cc1 [Compound 63]
8610 nM | CN(CCN)Cc1cnn(CCO)c1-c1ccc(F)cc1 [Compound 65]
8750 nM | CN(CCN)Cc1cn(CCO)nc1-c1ccc(F)cc1 [Compound 66]
404 nM | CN(CCN)Cc1c[nH]nc1-c1ccc(C#N)cc1 [Compound 68]
2650 nM | CNCCN(C)Cc1cn(C2CCCCC2)nc1-c1ccc(OC(C)C)cc1 [Compound 256]
